Legend:
[1] = tested on: MALME-3M; assay: NCI 60 single concentration growth inhibition; format: cell-based, human; details: Melanoma, 10 μM
Outline: (§1)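 Cells are plated and left 24 h, and a time-zero plate is fixed at drug addition. Compound is then added for 48 h, the cells are fixed in cold TCA and stained with 0.4% SRB, and bound dye is solubilised in 10 mM Tris for reading at 515 nm.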

[2] = tested on: UO-31; assay: NCI 60 single concentration growth inhibition; format: cell-based, human; details: UO-31, Renal cancer, 10 μM
Outline: as §1

[3] = tested on: SNB-75; assay: NCI 60 single concentration growth inhibition; format: cell-based, human; details: SNB-75, CNS cancer, 10 μM
Outline: as §1

[4] = tested on: NCI-H322M; assay: NCI 60 single concentration growth inhibition; format: cell-based, human; details: Non-small cell lung cancer, 10 μM
Outline: as §1

[5] = biological target: T1, BRAFWT (Homo sapiens, UniProt P15056); assay: BRAFWT kinase assay kit (Kinase-Glo Max luminescence); format: biochemical; details: mean of two independent experiments ± SD; for % inhibition / inhibition at 10 µM: BRAFwt, 10 µM
T1 construct: purchased BPS Biosciences 78316
T1 sequence (P15056 whole entry): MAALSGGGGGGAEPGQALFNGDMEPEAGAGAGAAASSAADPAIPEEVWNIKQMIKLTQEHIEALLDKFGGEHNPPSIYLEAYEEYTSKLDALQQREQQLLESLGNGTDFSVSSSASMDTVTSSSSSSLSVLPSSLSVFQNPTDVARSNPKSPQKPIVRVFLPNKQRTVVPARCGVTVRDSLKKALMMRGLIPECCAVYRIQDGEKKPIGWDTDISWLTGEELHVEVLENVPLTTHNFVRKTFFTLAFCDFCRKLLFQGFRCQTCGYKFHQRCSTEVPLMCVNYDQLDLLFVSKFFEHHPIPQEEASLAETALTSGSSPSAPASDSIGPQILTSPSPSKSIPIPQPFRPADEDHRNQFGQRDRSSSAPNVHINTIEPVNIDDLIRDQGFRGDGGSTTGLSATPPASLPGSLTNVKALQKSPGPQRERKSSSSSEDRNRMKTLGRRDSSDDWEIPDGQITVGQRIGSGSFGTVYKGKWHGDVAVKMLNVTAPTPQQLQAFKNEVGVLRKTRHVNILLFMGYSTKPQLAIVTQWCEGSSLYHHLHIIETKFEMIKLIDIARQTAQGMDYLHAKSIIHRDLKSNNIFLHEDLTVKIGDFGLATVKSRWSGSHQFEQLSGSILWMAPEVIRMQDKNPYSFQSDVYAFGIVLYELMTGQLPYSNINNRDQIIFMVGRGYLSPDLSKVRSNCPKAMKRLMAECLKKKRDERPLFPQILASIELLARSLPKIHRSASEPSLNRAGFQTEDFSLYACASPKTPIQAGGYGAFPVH
Protocol: The inhibitory activities of 10a–p on BRAFWT was examined utilizing BRAFWT assay kit (BPS Biosciences—San Diego—CA—US) (For further information see Additional file A).
4. Biochemical kinase assays
The inhibitory activity against different kinases was determined using kinase kits (BRAF WT […]
Glo Max luminescence kinase assay kit (Promega).
The assay was carried out according to the protocol provided by the manufacturer. A stock solution of the synthesized derivatives in 100% DMSO was prepared. Subsequently, the compounds were diluted to 10% DMSO.
A master mixture was prepared according to the number of wells. For BRAF assay each well include 6 μl of 5x Kinase Buffer 1 + 1 μl of ATP (500 μM) + 10 μl of 5X Raf substrate + 8 μl of distilled water. 1x Kinase buffer 1 was prepared by mixing 600 μl of 5x Kinase Buffer 1 with 2400 μl water to give 3 mL. Kinases were thawed on ice and were diluted with 1x Kinase Buffer 1.
To start the biochemical reaction, 25 µL of the master mixture was added to each well in 96 well plate. 5 µL of 10% DMSO was added to positive control wells and blank wells. 5 µL of diluted inhibitor was added to each well labelled with the test inhibitor so that the final concentration of DMSO is 1% in all reactions. Then 20 µL of (2.5 ng/μl) in case of BRAF WT and (1 ng / μl) in case of VEGFR-2 and FGFR-1 in 1x kinase buffer was added to positive control wells and wells labelled with the inhibitor, while 20 µL 1x kinase buffer 1 was added to the blank wells.
The plate was incubated at 30 °C for 45 min. Subsequently, 50 μl of Kinase-Glo Max luminescence reagent was added to each well and the plate was covered with aluminum foil and incubated at room temperature for 15 min. Finally, the luminescence was recorded using multimode microplate reader. Kinase activity assays were performed in duplicate at each concentration.
The luminescence data were analyzed as follows. The difference between luminescence intensities in the absence of kinase (Lu t) and in the presence of kinase (Lu c) was defined as 100 % […]
calculated as: % activity = {(Lu t - Lu)/(Lut - Luc)} ×100%. The concentration of the test compounds required to reduce the kinase activity by 50% was determined from dose-response curves and […]

Compound: 2-(4-((2-(2-(5,6-Dichloro-2-(4-methoxyphenyl)-1H-benzo[d]imidazol-1-yl)acetyl)hydrazono)methyl) -2-methoxyphenoxy)acetic acid [Compound 10m]
- GI% [1]: – (GI% < 5%)
- GI% [2]: 8.63%
- GI% [3]: – (GI% < 5%)
- GI% [4]: – (GI% < 5%)
- % inhibition [5]: 77.25 ± 1.06%

Compound: 2-(5-((2-(2-(5,6-Dichloro-2-(4-methoxyphenyl)-1H-benzo[d]imidazol-1-yl)acetyl)hydrazono)methyl)-2-methoxyphenoxy)acetic acid [Compound 10n]
- GI% [1]: – (GI% < 5%)
- GI% [2]: 13.00%
- GI% [3]: – (GI% < 5%)
- GI% [4]: – (GI% < 5%)
- % inhibition [5]: 90.05 ± 5.16%

Compound: 3-(4-((2-(2-(5,6-Dichloro-2-(4-methoxyphenyl)-1H-benzo[d]imidazol-1-yl)acetyl)hydrazono)methyl)phenoxy)propanoic acid [Compound 10i]
- GI% [1]: – (GI% < 5%)
- GI% [2]: 25.68%
- GI% [3]: 8.33%
- GI% [4]: – (GI% < 5%)
- % inhibition [5]: 74.95 ± 5.15%

Compound: COc1ccc(-c2nc3cc(Cl)c(Cl)cc3n2CC(=O)NN=Cc2cccc(O)c2)cc1 [Compound 10a, 2-(5,6-Dichloro-2-(4-methoxyphenyl)-1H-benzo[d]imidazol-1-yl)-N'-(3-hydroxybenzylidene)acetohydrazide]
- inhibition at 10 µM [5]: 22.5 ± 1%

Compound: COc1ccc(-c2nc3cc(Cl)c(Cl)cc3n2CC(=O)NN=Cc2ccc(O)cc2)cc1 [Compound 10b, 2-(5,6-Dichloro-2-(4-methoxyphenyl)-1H-benzo[d]imidazol-1-yl)-N'-(4-hydroxybenzylidene)acetohydrazide]
- inhibition at 10 µM [5]: 21.9 ± 1.62%

Compound: COc1ccc(-c2nc3cc(Cl)c(Cl)cc3n2CC(=O)NN=Cc2cccc(OC)c2)cc1 [Compound 10c, 2-(5,6-Dichloro-2-(4-methoxyphenyl)-1H-benzo[d]imidazol-1-yl)-N'-(3-methoxybenzylidene)acetohydrazide]
- inhibition at 10 µM [5]: 53.85 ± 0.001%

Compound: COc1ccc(C=NNC(=O)Cn2c(-c3ccc(OC)cc3)nc3cc(Cl)c(Cl)cc32)cc1 [Compound 10d, 2-(5,6-Dichloro-2-(4-methoxyphenyl)-1H-benzo[d]imidazol-1-yl)-N'-(4-methoxybenzylidene)acetohydrazide]
- inhibition at 10 µM [5]: 52.7 ± 0.87%

Compound: COc1ccc(-c2nc3cc(Cl)c(Cl)cc3n2CC(=O)NN=Cc2cccc(OCC(=O)O)c2)cc1 [Compound 10e, 2-(3-((2-(2-(5,6-Dichloro-2-(4-methoxyphenyl)-1H-benzo[d]imidazol-1-yl)acetyl)hydrazono)methyl)phenoxy)acetic acid]
- GI% [1]: – (GI% < 5%)
- GI% [2]: 10.58%
- GI% [3]: – (GI% < 5%)
- GI% [4]: – (GI% < 5%)
- inhibition at 10 µM [5]: 28.1 ± 2.76%

Compound: COc1ccc(-c2nc3cc(Cl)c(Cl)cc3n2CC(=O)NN=Cc2ccc(OCC(=O)O)cc2)cc1 [Compound 10f, 2-(4-((2-(2-(5,6-Dichloro-2-(4-methoxyphenyl)-1H-benzo[d]imidazol-1-yl)acetyl)hydrazono)methyl)phenoxy)acetic acid]
- inhibition at 10 µM [5]: 53.15 ± 0.36%

Compound: COC(=O)COc1cccc(C=NNC(=O)Cn2c(-c3ccc(OC)cc3)nc3cc(Cl)c(Cl)cc32)c1 [Compound 10g, Methyl-2-(3-((2-(2-(5,6-dichloro-2-(4-methoxyphenyl)-1H-benzo[d]imidazol-1-yl)acetyl)hydrazono)methyl)phenoxy)acetate]
- inhibition at 10 µM [5]: 39.9 ± 2.49%

Compound: COC(=O)COc1ccc(C=NNC(=O)Cn2c(-c3ccc(OC)cc3)nc3cc(Cl)c(Cl)cc32)cc1 [Compound 10h, Methyl-2-(4-((2-(2-(5,6-dichloro-2-(4-methoxyphenyl)-1H-benzo[d]imidazol-1-yl)acetyl)hydrazono)methyl)phenoxy)acetate]
- inhibition at 10 µM [5]: 91.2 ± 6.5%
- IC50 [5]: 1.72 ± 0.09 µM

Compound: CCOC(=O)C(C)Oc1ccc(C=NNC(=O)Cn2c(-c3ccc(OC)cc3)nc3cc(Cl)c(Cl)cc32)cc1 (stereo not drawn) [Compound 10j, Ethyl-2-(4-((2-(2-(5,6-dichloro-2-(4-methoxyphenyl)-1H-benzo[d]imidazol-1-yl)acetyl) hydrazono)methyl)phenoxy)propanoate]
- GI% [1]: – (GI% < 5%)
- GI% [2]: 25.57%
- GI% [3]: 5.72%
- GI% [4]: – (GI% < 5%)
- inhibition at 10 µM [5]: 70.2 ± 6.16%

Compound: COc1ccc(-c2nc3cc(Cl)c(Cl)cc3n2CC(=O)NN=Cc2ccc(OC)c(O)c2)cc1 [Compound 10k, 2-(5,6-Dichloro-2-(4-methoxyphenyl)-1H-benzo[d]imidazol-1-yl)-N'-(3-hydroxy-4-methoxybenzylidene)acetohydrazide]
- GI% [1]: 23.45%
- GI% [2]: 55.02%
- GI% [3]: 33.65%
- GI% [4]: 8.94%
- inhibition at 10 µM [5]: 47.6 ± 3.8%

Compound: COc1ccc(-c2nc3cc(Cl)c(Cl)cc3n2CC(=O)NN=Cc2ccc(O)c(OC)c2)cc1 [Compound 10l, 2-(5,6-Dichloro-2-(4-methoxyphenyl)-1H-benzo[d]imidazol-1-yl)-N'-(4-hydroxy-3-methoxybenzylidene)acetohydrazide]
- inhibition at 10 µM [5]: 52.3 ± 4.92%

Compound: COC(=O)COc1cc(C=NNC(=O)Cn2c(-c3ccc(OC)cc3)nc3cc(Cl)c(Cl)cc32)ccc1OC [Compound 10o, Methyl-2-(5-((2-(2-(5,6-dichloro-2-(4-methoxyphenyl)-1H-benzo[d]imidazol-1-yl)acetyl)hydrazono)methyl)-2-methoxyphenoxy)acetate]
- GI% [1]: – (GI% < 5%)
- GI% [2]: 18.26%
- GI% [3]: 27.54%
- GI% [4]: 11.69%
- inhibition at 10 µM [5]: 34.3 ± 3.31%

Compound: COC(=O)COc1ccc(C=NNC(=O)Cn2c(-c3ccc(OC)cc3)nc3cc(Cl)c(Cl)cc32)cc1OC [Compound 10p, Methyl-2-(4-((2-(2-(5,6-dichloro-2-(4-methoxyphenyl)-1H-benzo[d]imidazol-1-yl)acetyl)hydrazono)methyl)-2-methoxyphenoxy)acetate]
- inhibition at 10 µM [5]: 90.5 ± 8.9%

Source: paper PMC11844072, “Novel 5,6-dichlorobenzimidazole derivatives as dual BRAFWT and BRAFV600E inhibitors: design, synthesis, anti-cancer activity and molecular dynamics simulations” (BMC Chemistry, 2025)
